{"source": "paper PMC12808100", "about": "“The non-catalytic DNA polymerase ε subunit is an NPF motif recognition protein” (Nature Communications, 2025)", "key": {"[1]": {"test_system": "endogenous proteins of Jurkat extract", "assay": "Single-point nHU-MS with biotinylated NPF motif peptide baits, proteome-wide", "type": "binding, human", "settings": "FigureS2 Volcano; prey FBXO3", "excerpt": "To identify the partners of NPF motifs, we used the native holdup (nHU) assay that was recently developed by our team (Fig. 1B). The holdup approach has been extensively used to determine equilibrium dissociation constants of transient interactions mediated by PDZ and SH3 domains, 14-3-3, and human papilloma virus E6 proteins, and even nucleic acid-protein interactions[7],[30]–[35]. In the nHU experiments, a purified bait molecule, or a control compound, is immobilized on a resin at high concentration (typically 10 μM, or higher) and these resin stocks are subsequently mixed with dilute cell extracts. […] This liquid phase contains the unbound prey molecules at near binding equilibrium that can be quantified using selective and quantitative analytical approaches, such as mass spectrometry. Therefore, proteins that interact with the bait molecule will appear to be depleted in the solvent phase and by measuring its relative concentration compared to the control nHU experiment, the degree of binding (θ) can be determined that can be converted to apparent steady-state dissociation constants, according to:1 θ=1−Ifree/Itot=Cbait/Cbait+Kapp where Itot and Ifree are the measured total and bait-depleted equilibrium mass spectrometry total ion intensities of prey proteins, Cbait is the bait molecule concentration and Kapp is the apparent dissociation constant. […]"}, "[2]": {"biological_target": "T1, PPP2R2A (Homo sapiens, UniProt P63151)", "T1 sequence (P63151 1-447)": "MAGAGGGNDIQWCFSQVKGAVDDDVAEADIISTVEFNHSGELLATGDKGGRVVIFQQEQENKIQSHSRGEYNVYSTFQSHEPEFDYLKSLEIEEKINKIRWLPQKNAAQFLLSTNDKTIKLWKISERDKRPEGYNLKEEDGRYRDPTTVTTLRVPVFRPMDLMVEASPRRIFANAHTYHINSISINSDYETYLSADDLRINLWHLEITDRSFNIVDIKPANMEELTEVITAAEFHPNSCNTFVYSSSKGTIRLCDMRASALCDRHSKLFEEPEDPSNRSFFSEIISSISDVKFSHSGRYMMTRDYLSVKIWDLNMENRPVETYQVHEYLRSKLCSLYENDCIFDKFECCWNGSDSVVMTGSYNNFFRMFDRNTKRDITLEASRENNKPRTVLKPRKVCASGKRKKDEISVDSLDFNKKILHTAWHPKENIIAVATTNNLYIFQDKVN", "assay": "nHU-MS peptide bait, prey PPP2R2A", "settings": "FigureS2 Volcano"}}, "data": [{"substance": "TSETSK [SYNJ1]", "values": [{"measurement": "log2FC", "setting": "[1]", "result": -0.5002}, {"measurement": "-log10P", "setting": "[2]", "result": 6.763}, {"measurement": "log2FC", "setting": "[2]", "result": -0.4164}]}]}
